Source: PubChem BioAssay AID179 (DTP/NCI, 2004)
Activity calls are given as the source filed them.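 Rule for the calls: active = compounds giving half or more protection of infected cells from virus-caused growth loss, again on retest; inactive = the rest.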 Where a SMILES comes first, the peptide text is derived from it.

Tested on: CEM cells HIV-1 protection, formazan growth assay
Assay: NCI AIDS Antiviral Assay
Settings: for IC50: measured here: growth of uninfected CEM cells
In short: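 Protection of CEM cells against HIV-1 was scored from cell growth (soluble formazan) across five concentrations, with parallel uninfected cells. Lack of protection may reflect toxicity.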

| Compound | EC50 [µM] | IC50 [µM] | outcome |
| --- | --- | --- | --- |
| CC(N)CNCCCNCCNCCCNCO (centres undefined) | > 100 | > 100 |  |
| S=C1C(=Nc2ccccc2)N(C2CCCCC2)C(=NC2CCCCC2)N1c1ccccc1 | > 200 | 141 |  |
| CCCCCCCCCCCCCCCC[N+]1(C)CC2CCCCC2C1 (centres undefined) | > 2 | 0.55 |  |
| CC#CCCC1CCCCN(C(=O)OC(C)(C)C)C1OCC (centres undefined) | > 115 | 58.9 |  |
| Cn1c(COc2ccc(/C=N\NC(=O)c3ccc(C(=O)N/N=C/c4ccc(OCc5c[n+]6ccccc6n5C)cc4)cc3)cc2)c[n+]2ccccc12 | 4.57 | 9.55 |  |
| COC1(c2ccc(Cl)cc2)SC=C(C)n2c1noc2=O (centres undefined) | > 200 | > 200 |  |
| C1CN(CCSSCCN2CCOCC2)CCO1 | > 200 | 166 |  |
| C1CNCCNCCNCCN1 |  |  | inactive |
| CC(C(=O)O)N(N=O)c1ccccc1 (centres undefined) | > 676 | > 676 |  |
| O=c1c2cc(Br)cc(Br)c2[nH]c(=S)n1-c1ccccc1 | > 316 | 126 |  |
| CC1(C)C(=O)N2CCSC21 (centres undefined) | > 16.6 | > 16.6 |  |
| CC(NC(=O)c1ccccc1SC(=O)CCCCC[n+]1ccccc1)C(N)=O (centres undefined) | 2.75 | 30.2 |  |
| COc1ccc(/C=C2\N=C(c3ccccc3)OC2=O)c(OCc2ccccc2)c1 | > 9.77 | > 9.77 |  |
| COc1ccc(C2c3c(-c4ccccc4)nn(-c4ccccc4)c3Oc3ncn4nc(CC#N)nc4c32)cc1OC (centres undefined) | > 200 | > 200 |  |
| C=C(CN(C)C)c1ccccn1 | > 200 | > 200 |  |
| CC1=C(C(=O)NNC(=O)Cc2ccccc2)CC(C(=O)NNC(=O)Cc2ccccc2)=C(C)N1 | > 200 | 36.3 |  |
| C/C(=N\NC(=S)N1CCC1)c1ccccn1 | > 0.2 | 0.00525 |  |
| C=C(Br)CNC(=O)Nc1ccccn1 | > 200 | > 200 |  |
| Cc1nc2ccc(Br)cc2c(=O)n1-c1nnc(C(C)(C)C)s1 | > 200 | > 200 |  |
| C/C=C1\CN(C)C[C@H]2Cc3c(n(OC)c4ccccc34)C(=O)C[C@@H]12 | > 24 | > 24 |  |
| COC(=O)C1C(C(=O)OC)C2C(=O)C3C(C(=O)OC)C(C(=O)OC)C3C(=O)C12 (centres undefined) | > 91.2 | > 91.2 |  |
| CC[C@]1(O)C[C@H]2CN(CCc3c([nH]c4ccccc34)[C@@](C(=O)OC)(c3cc4c(cc3OC)N(C=O)[C@H]3[C@@](O)(C(=O)OC)[C@H](OC(C)=O)[C@]5(CC)C=CCN6CC[C@]43[C@@H]65)C2)C1 | > 0.0302 | 0.000525 |  |

| Compound | EC50 [µM] | IC50 [µM] | outcome |
| --- | --- | --- | --- |
| O=S(OO)c1cc(Cl)c(O)c(Cl)c1 (centres undefined) | > 1020 | > 1020 |  |
| Nc1c(-c2ccccc2[N+](=O)[O-])nc2ccccn12 | > 513 | 120 |  |
| CC1(C)CCNc2ccccc2S1 | > 229 | > 229 |  |
| COc1cc2oc(=O)cc(C)c2c(OC)c1O |  |  | inactive |
| CC(C)CCCC(C)C1CCC2C3CC[C@H]4C[C@@H](CCC=C(c5cc(Cl)c(OCc6cccc(B7OC(C)(C)C(C)(C)O7)c6)c(C(=O)OCc6cccc(B7OC(C)(C)C(C)(C)O7)c6)c5)c5cc(Cl)c(OCc6cccc(B7OC(C)(C)C(C)(C)O7)c6)c(C(=O)OCc6cccc(B7OC(C)(C)C(C)(C)O7)c6)c5)CC[C@]4(C)C3CC[C@]12C (some centres undefined) | > 50.1 | > 50.1 |  |
| CS(=O)(=O)SCc1ccc([N+](=O)[O-])cc1 | > 145 | 20.4 |  |
| C=CC(=O)N1C/C(=C\c2ccccc2)C(=O)/C(=C/c2ccccc2)C1 | > 15.8 | 0.933 |  |
| CN(C)N1CCOC1=O | > 200 | > 200 |  |
| CSc1nc(N)nc(N)n1 | > 200 | > 200 |  |
| COc1ccc(-c2c3c(nc4nc(SCCc5ccccc5)nc(N)c24)CCCC3)cc1OC | > 200 | > 200 |  |
| Cc1cccc(-c2cc(=O)c3cc(C)c(C)c(C(=O)O)c3o2)c1 |  |  | inactive |
| O=C1NC(O)c2c(F)cccc2O1 (centres undefined) | > 200 | 132 |  |
| C=[CH][Sn]([CH]=C)([S]c1cccc2cccnc12)[S]c1cccc2cccnc12 |  |  | inactive |
| COC1O[C@H]2[C@H]3[C@@H]1[C@@H](OS(=O)(=O)c1ccc(C)cc1)C(=O)N3C[C@H]2O (some centres undefined) | 18.2 | 141 |  |
| CCCC1C2C(=O)N(c3ccccc3)C(=O)C2ON1c1ccccc1 (centres undefined) | > 40.7 | > 40.7 |  |
| CC1(O)N2CCCC1(c1ccccc1)CC2 (centres undefined) | > 1150 | 178 |  |
| N/C(=N/O)c1nsnc1/C(N)=N\O | > 200 | > 200 |  |
| CC1OC(CC(=O)O)CC2=C1C(=O)c1c(O)cccc1C2=O (centres undefined) | > 120 | 0.0447 |  |
| CC(=O)NC(ON1C(=O)COc2ccccc21)C(Cl)(Cl)Cl (centres undefined) | > 100 | > 100 |  |
| Nc1ccn(C2OC(COC(=O)c3ccccc3)C(OC(=O)c3ccccc3)C2I)c(=O)n1 (centres undefined) | > 200 | 35.5 |  |
| CCCCC(CC)COS(=O)(=O)O (centres undefined) | 145 | > 200 |  |
| CN(C)CCCNC(=O)c1cc(NC(=O)c2cc(NC(=O)c3cc(N4C(=O)c5ccccc5C4=O)cn3C)cn2C)cn1C | > 81.3 | 57.5 |  |

| Compound | EC50 [µM] | IC50 [µM] | outcome |
| --- | --- | --- | --- |
| CN(C)c1ccc(/C=C(\NC(=O)c2ccccc2)C(=O)NC(CCC(=O)O)C(=O)O)cc1 (centres undefined) | > 50.1 | 34.7 |  |
| CCOC(=O)C(=O)Nc1c(C)cccc1C(C)C | > 1000 | > 1000 |  |
| O=C1c2ccccc2-c2c1c1ccccc1c(=O)n2Cc1ccccc1 | > 29.5 | > 29.5 |  |
| CN(C)CCCn1cnc2ncccc2c1=O |  |  | inactive |
| COc1c(C(C)C)cc(O)c2c1CCC1C(C)=C(C(=O)O)CCC21C (centres undefined) | > 200 | 110 |  |
| COC(=O)C12C3C4C1C1C2C3C41C(=O)NC(C)(C)CC(=O)O (centres undefined) | > 200 | > 200 |  |
| CCO/C=N\C1=C(C#N)SC2=N/C(=C\c3ccco3)C(=O)N21 |  |  | inactive |
| NNC(=S)N/N=C(\c1nc2ccc(Cl)cc2[nH]c1=O)C(O)c1ccc(Cl)cc1Cl (centres undefined) | > 525 | 97.7 |  |
| O=c1ccc(-c2ccc(-n3ccnc3)cc2)nn1CCO | > 200 | > 200 |  |
| CCCNC(=O)Sc1ccccc1C(=O)N[C@H](C)C(N)=O | > 4.68 |  |  |
| CC(C)CC(NC(=O)C(Cc1ccc(O)cc1)NC(=O)CNC(=O)C(N)CCC(=O)O)C(=O)NC(Cc1c[nH]c2ccccc12)C(=O)O (centres undefined) (H-EGYLW-OH; configuration not given here) |  |  | inactive |
| C[C@@H]1C(=O)O[C@H]1[C@H](O)CO | > 200 | > 200 |  |
| Cc1ccc(/C(O)=C/c2nc3ccccc3[nH]c2=O)c(C)c1 | > 200 | 35.5 |  |
| O=C(CCCC[n+]1ccccc1)Sc1ccccc1C(=O)Nc1ccc(S(=O)(=O)c2ccc([N+](=O)[O-])cc2)cc1 | 7.59 | 138 |  |
| CC(=O)OC1CCn2c1nc1cc([N+](=O)[O-])c(C)cc12 (centres undefined) | > 200 | > 200 |  |
| C[C@@H]1S[C@H](c2c(F)cccc2Cl)n2c1nc1ccccc12 | 3.55 | 12.9 |  |
| COC(=O)C1C=CCC2CCCCC21N1CCCC1 (centres undefined) |  |  | inactive |
| COc1cc(COC(=O)N2CC=CC2C(=O)O)c([N+](=O)[O-])cc1OC (centres undefined) | > 708 | > 708 |  |
| COc1ccc2c(c1O)C1=CC(=O)CC[C@]13CCN(C)[C@H]3C2 | > 832 | 661 |  |
| COC(=O)c1ccc(C)cc1C1CN=NC12Cc1c(C)cccc1C2=O (centres undefined) | > 200 | > 200 |  |
